{"source": "paper PMC11775380", "about": "“Discovery of Novel Nav1.7-Selective Inhibitors with the 1H-Indole-3-Propionamide Scaffold for Effective Pain Relief” (Research, 2025)", "key": {"Nav1.7 A1596G": {"biological_target": "T1, Nav1.7 A1596G (Homo sapiens, UniProt Q15858, A1596G)", "T1 construct": "expressed in transfected cells; host or cells: HEK293T", "T1 sequence (Q15858 whole entry A1596G)": "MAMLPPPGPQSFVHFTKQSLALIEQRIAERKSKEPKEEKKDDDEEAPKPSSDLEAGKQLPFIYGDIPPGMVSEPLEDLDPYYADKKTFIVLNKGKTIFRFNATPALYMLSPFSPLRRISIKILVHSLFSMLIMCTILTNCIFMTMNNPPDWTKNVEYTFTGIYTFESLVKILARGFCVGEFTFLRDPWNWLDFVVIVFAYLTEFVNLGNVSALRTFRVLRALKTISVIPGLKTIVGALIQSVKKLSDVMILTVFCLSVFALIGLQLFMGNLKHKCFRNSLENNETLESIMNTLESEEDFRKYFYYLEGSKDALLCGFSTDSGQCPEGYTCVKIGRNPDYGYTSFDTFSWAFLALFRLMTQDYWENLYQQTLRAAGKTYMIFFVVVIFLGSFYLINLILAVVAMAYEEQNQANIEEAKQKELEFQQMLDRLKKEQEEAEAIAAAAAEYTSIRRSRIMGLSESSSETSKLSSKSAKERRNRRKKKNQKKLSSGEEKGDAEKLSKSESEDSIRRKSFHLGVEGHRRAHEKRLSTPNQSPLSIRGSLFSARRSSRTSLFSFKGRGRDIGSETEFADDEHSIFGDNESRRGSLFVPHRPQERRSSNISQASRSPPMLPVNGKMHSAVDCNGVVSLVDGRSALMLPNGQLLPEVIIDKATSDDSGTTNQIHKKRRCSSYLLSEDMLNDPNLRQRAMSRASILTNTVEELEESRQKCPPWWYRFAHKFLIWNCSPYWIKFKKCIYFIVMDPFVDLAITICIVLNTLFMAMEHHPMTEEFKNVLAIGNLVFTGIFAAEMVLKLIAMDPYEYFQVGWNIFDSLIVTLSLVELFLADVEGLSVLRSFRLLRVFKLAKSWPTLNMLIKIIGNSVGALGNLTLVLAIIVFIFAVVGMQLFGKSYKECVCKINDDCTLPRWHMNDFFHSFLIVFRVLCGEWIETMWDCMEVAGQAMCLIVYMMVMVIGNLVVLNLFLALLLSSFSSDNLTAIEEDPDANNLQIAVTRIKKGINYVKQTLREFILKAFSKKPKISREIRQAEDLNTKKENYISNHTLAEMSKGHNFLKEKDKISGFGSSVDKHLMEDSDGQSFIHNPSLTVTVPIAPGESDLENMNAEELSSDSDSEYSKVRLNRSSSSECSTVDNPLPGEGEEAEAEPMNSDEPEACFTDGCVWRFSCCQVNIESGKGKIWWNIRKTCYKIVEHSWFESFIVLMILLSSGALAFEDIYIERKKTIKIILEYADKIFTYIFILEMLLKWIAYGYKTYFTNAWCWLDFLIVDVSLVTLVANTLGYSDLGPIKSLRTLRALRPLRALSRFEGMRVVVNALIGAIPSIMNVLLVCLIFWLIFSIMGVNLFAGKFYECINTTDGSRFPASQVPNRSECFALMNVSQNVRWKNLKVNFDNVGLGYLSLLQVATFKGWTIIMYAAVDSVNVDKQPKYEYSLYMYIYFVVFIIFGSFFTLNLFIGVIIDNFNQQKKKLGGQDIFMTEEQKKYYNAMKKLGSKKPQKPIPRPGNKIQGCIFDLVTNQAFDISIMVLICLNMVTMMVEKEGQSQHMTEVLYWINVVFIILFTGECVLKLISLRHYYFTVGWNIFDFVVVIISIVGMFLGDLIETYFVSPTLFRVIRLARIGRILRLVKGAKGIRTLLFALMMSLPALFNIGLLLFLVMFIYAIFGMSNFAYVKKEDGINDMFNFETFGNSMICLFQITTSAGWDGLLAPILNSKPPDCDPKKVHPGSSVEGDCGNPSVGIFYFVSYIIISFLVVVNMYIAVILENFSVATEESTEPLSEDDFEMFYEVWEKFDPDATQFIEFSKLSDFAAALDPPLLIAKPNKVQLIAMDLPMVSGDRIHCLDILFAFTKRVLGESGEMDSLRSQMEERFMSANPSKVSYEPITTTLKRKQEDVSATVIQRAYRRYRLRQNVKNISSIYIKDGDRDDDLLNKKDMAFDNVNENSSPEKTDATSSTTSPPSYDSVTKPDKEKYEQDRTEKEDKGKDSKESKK", "T1 sequence (Q07699 19-218 partner)": "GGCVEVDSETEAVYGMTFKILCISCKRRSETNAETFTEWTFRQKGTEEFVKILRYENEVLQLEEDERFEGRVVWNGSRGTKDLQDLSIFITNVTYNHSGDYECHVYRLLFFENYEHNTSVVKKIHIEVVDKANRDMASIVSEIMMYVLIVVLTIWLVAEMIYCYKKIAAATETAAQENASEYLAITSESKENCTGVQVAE", "T1 sequence (O60939 30-215 partner)": "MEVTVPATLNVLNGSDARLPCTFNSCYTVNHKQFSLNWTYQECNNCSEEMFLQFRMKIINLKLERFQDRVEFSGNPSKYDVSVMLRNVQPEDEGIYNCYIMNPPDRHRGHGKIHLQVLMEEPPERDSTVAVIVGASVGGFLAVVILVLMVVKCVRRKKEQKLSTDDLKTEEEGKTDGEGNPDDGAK", "experiment": "Single site-directed mutagenesis, inhibition by patch clamp", "type": "cell-based", "conditions": "1 μM", "description": "(§1) The amino acids depicted in Fig. 4C were individually mutated to alanine or glycine to perform single site-directed mutagenesis. Subsequently, the inhibition rates of these mutations against WN2-R were measured at a concentration of 1 μM (Fig. 4D). […] While single site-directed mutagenesis did affect the antagonistic activity of WN2-R, it did so to a limited extent, as the presumed induced-fit effect typically arises from the concerted movement of multiple residues.\n(§2) Whole-cell patch-clamp recordings were conducted at 25 ± 2 °C, utilizing an EPC 10USB patch-clamp amplifier (HEKA Elektronik, Lambrecht, Germany). Pipettes, with access resistance between 2.0 and 3.0 MΩ, were pulled from borosilicate glass capillary tubes using a 2-step vertical microelectrode puller (PC-10, Narishige Group, Tokyo, Japan). Voltage-clamp recordings were obtained with PatchMaster software v2 × 73 (HEKA Elektronik) 5 min after establishing whole-cell configuration, sampled at 20 kHz, and filtered at 5 kHz. To minimize voltage errors, 80% series resistance compensation was applied. Pipettes were filled with 140 mM CsF, 10 mM NaCl, 1 mM EGTA, and 10 mM HEPES (pH=7.4, adjusted with CsOH). The external solution contained 140 mM NaCl, 2 mM CaCl2, 1 mM MgCl2, 5 mM KCl, 10 mM HEPES, and 10 mM glucose (pH=7.4, adjusted with NaOH). IC50 values were determined in HEK293T or ND7/23 cell lines by voltage clamping at −80 mV, followed by stepping to the V1/2 of inactivation for 8 s to facilitate compound binding."}, "Nav1.7 F1609A": {"biological_target": "T2, Nav1.7 F1609A (Homo sapiens, UniProt Q15858, F1609A)", "T2 construct": "expressed in transfected cells; host or cells: HEK293T", "T2 sequence (Q15858 whole entry F1609A)": "as the sequence (Q15858 whole entry A1596G) above, with G1596A, F1609A counted along it", "T2 sequence (Q07699 19-218 partner)": "as the sequence (Q07699 19-218 partner) above", "T2 sequence (O60939 30-215 partner)": "as the sequence (O60939 30-215 partner) above", "experiment": "Single site-directed mutagenesis, inhibition by patch clamp", "type": "cell-based", "conditions": "1 μM", "description": "as §1, §2"}, "Nav1.7 I1612A": {"biological_target": "T3, Nav1.7 I1612A (Homo sapiens, UniProt Q15858, I1612A)", "T3 construct": "expressed in transfected cells; host or cells: HEK293T", "T3 sequence (Q15858 whole entry I1612A)": "as the sequence (Q15858 whole entry A1596G) above, with G1596A, I1612A counted along it", "T3 sequence (Q07699 19-218 partner)": "as the sequence (Q07699 19-218 partner) above", "T3 sequence (O60939 30-215 partner)": "as the sequence (O60939 30-215 partner) above", "experiment": "Single site-directed mutagenesis, inhibition by patch clamp", "type": "cell-based", "conditions": "1 μM", "description": "as §1, §2"}, "Nav1.7 M1593A": {"biological_target": "T4, Nav1.7 M1593A (Homo sapiens, UniProt Q15858, M1593A)", "T4 construct": "expressed in transfected cells; host or cells: HEK293T", "T4 sequence (Q15858 whole entry M1593A)": "as the sequence (Q15858 whole entry A1596G) above, with M1593A, G1596A counted along it", "T4 sequence (Q07699 19-218 partner)": "as the sequence (Q07699 19-218 partner) above", "T4 sequence (O60939 30-215 partner)": "as the sequence (O60939 30-215 partner) above", "experiment": "Single site-directed mutagenesis, inhibition by patch clamp", "type": "cell-based", "conditions": "1 μM", "description": "as §1, §2"}, "Nav1.7 N1551A": {"biological_target": "T5, Nav1.7 N1551A (Homo sapiens, UniProt Q15858, N1551A)", "T5 construct": "expressed in transfected cells; host or cells: HEK293T", "T5 sequence (Q15858 whole entry N1551A)": "as the sequence (Q15858 whole entry A1596G) above, with N1551A, G1596A counted along it", "T5 sequence (Q07699 19-218 partner)": "as the sequence (Q07699 19-218 partner) above", "T5 sequence (O60939 30-215 partner)": "as the sequence (O60939 30-215 partner) above", "experiment": "Single site-directed mutagenesis, inhibition by patch clamp", "type": "cell-based", "conditions": "1 μM", "description": "as §1, §2"}, "Nav1.7 R1613A": {"biological_target": "T6, Nav1.7 R1613A (Homo sapiens, UniProt Q15858, R1613A)", "T6 construct": "expressed in transfected cells; host or cells: HEK293T", "T6 sequence (Q15858 whole entry R1613A)": "as the sequence (Q15858 whole entry A1596G) above, with G1596A, R1613A counted along it", "T6 sequence (Q07699 19-218 partner)": "as the sequence (Q07699 19-218 partner) above", "T6 sequence (O60939 30-215 partner)": "as the sequence (O60939 30-215 partner) above", "experiment": "Single site-directed mutagenesis, inhibition by patch clamp", "type": "cell-based", "conditions": "1 μM", "description": "as §1, §2"}, "Nav1.7 T1544A": {"biological_target": "T7, Nav1.7 T1544A (Homo sapiens, UniProt Q15858, T1544A)", "T7 construct": "expressed in transfected cells; host or cells: HEK293T", "T7 sequence (Q15858 whole entry T1544A)": "as the sequence (Q15858 whole entry A1596G) above, with T1544A, G1596A counted along it", "T7 sequence (Q07699 19-218 partner)": "as the sequence (Q07699 19-218 partner) above", "T7 sequence (O60939 30-215 partner)": "as the sequence (O60939 30-215 partner) above", "experiment": "Single site-directed mutagenesis, inhibition by patch clamp", "type": "cell-based", "conditions": "1 μM", "description": "as §1, §2"}, "Nav1.7 Y1548A": {"biological_target": "T8, Nav1.7 Y1548A (Homo sapiens, UniProt Q15858, Y1548A)", "T8 construct": "expressed in transfected cells; host or cells: HEK293T", "T8 sequence (Q15858 whole entry Y1548A)": "as the sequence (Q15858 whole entry A1596G) above, with Y1548A, G1596A counted along it", "T8 sequence (Q07699 19-218 partner)": "as the sequence (Q07699 19-218 partner) above", "T8 sequence (O60939 30-215 partner)": "as the sequence (O60939 30-215 partner) above", "experiment": "Single site-directed mutagenesis, inhibition by patch clamp", "type": "cell-based", "conditions": "1 μM", "description": "as §1, §2"}, "Nav1.7 E1545A/E1600A": {"biological_target": "T9, Nav1.7 E1545A/E1600A (Homo sapiens, UniProt Q15858, E1545A/E1600A)", "T9 construct": "expressed in transfected cells; host or cells: HEK293T", "T9 sequence (Q15858 whole entry E1545A/E1600A)": "as the sequence (Q15858 whole entry A1596G) above, with E1545A, G1596A, E1600A counted along it", "T9 sequence (Q07699 19-218 partner)": "as the sequence (Q07699 19-218 partner) above", "T9 sequence (O60939 30-215 partner)": "as the sequence (O60939 30-215 partner) above", "experiment": "Multiple site-directed mutagenesis, inhibition by patch clamp", "type": "cell-based", "conditions": "1 μM", "from_the_text": "(§3) To further investigate the roles of these residues in WN2-R binding, 3 combinations of double or triple site-directed mutagenesis were introduced, including Y1548A/F1609A (to investigate the function of phenyl ring-containing residues surrounding WN2-R, Fig. 4E), E1545A/E1600A (to examine the importance of negatively charged residues at the binding site entrance, Fig. 4F), and Y1548A/V1552A/M1593A (to understand the role of the outer hydrophobic wall formed by these residues in ligand binding, Fig. 4G).\nas §2"}, "Nav1.7 Y1548A/F1609A": {"biological_target": "T10, Nav1.7 Y1548A/F1609A (Homo sapiens, UniProt Q15858, F1609A/Y1548A)", "T10 construct": "expressed in transfected cells; host or cells: HEK293T", "T10 sequence (Q15858 whole entry Y1548A/F1609A)": "as the sequence (Q15858 whole entry A1596G) above, with Y1548A, G1596A, F1609A counted along it", "T10 sequence (Q07699 19-218 partner)": "as the sequence (Q07699 19-218 partner) above", "T10 sequence (O60939 30-215 partner)": "as the sequence (O60939 30-215 partner) above", "experiment": "Multiple site-directed mutagenesis, inhibition by patch clamp", "type": "cell-based", "conditions": "1 μM", "from_the_text": "as §3, §2"}, "[1]": {"biological_target": "T11, Nav1.7 Y1548A/V1552A/M1593A (Homo sapiens, UniProt Q15858, M1593A/V1552A/Y1548A)", "T11 construct": "expressed in transfected cells; host or cells: HEK293T", "T11 sequence (Q15858 whole entry Y1548A/V1552A/M1593A)": "as the sequence (Q15858 whole entry A1596G) above, with Y1548A, V1552A, M1593A, G1596A counted along it", "T11 sequence (Q07699 19-218 partner)": "as the sequence (Q07699 19-218 partner) above", "T11 sequence (O60939 30-215 partner)": "as the sequence (O60939 30-215 partner) above", "experiment": "Multiple site-directed mutagenesis, inhibition by patch clamp", "type": "cell-based", "conditions": "1 μM", "from_the_text": "as §3, §2"}, "[2]": {"tested_on": "acetic acid writhing pain model in mice", "experiment": "Acetic acid-induced writhing test", "type": "in vivo, ICR mice", "conditions": "15 min before acetic acid, writhing counted 30 min", "from_the_text": "Acute pain was a common type of pain with considerable value for drug development. Here, 2 acute inflammatory pain models were used to verify the acute analgesic effect of WN2-R. One such model, the acetic acid writhing pain model in mice, is a well-established acute visceral pain model. It simulates clinically relevant intestinal discomfort by stimulating the abdominal mucosa and intestine with acetic acid and has been extensively used to screen analgesic or anti-inflammatory drugs. Based on this model, we evaluated the acute analgesic effect of WN2-R using 2 drug delivery methods, i.g. and […] (n = 6). […] Furthermore, the analgesic effect of WN2-R at the same dose was similar to that of the positive control drug PF-05089771, with no significant difference between these two. […] Three male and 3 female ICR mice were used in the acetic acid-induced writhing test. Mice were preadministered with either WN2-R (5 mg/kg i.g., 1 mg/kg i.m.), PF05089771 (5 mg/kg i.g., 1 mg/kg i.m.), or saline 15 min before i.p. injection of 0.2 ml of acetic acid (0.8%, V/V). Each mouse was then placed in an individual open polyvinyl cage (30 cm × 40 cm × 30 cm). The number of writhing responses, characterized by a wave of abdominal muscle contraction followed by hind limb extension, was recorded for 30 min after acetic acid injection. These responses served as an indication of nociceptive intensity. The percentage of inhibition was calculated using the following equation: Inhibition% = (Writhing Numbervehicle – Writhing Numberdrug)/Writhing Numbervehicle × 100% [15, 47]."}, "mice": {"tested_on": "mice", "conditions": "mouse, in vivo", "description": "VGSC inhibitors required credible subtype selectivity to void side effects caused by binding to nontarget subtypes. At a concentration of 1 μM, the inhibitory rates of WN2-R on hNav1.2, hNav1.3, hNav1.4, hNav1.5, mNav1.6, and hNav1.8 were determined (n = 3 to 6, Fig. 7A). […] To further evaluate the drug safety profile, high-dose acute toxicity experiments were conducted. Mice were administered a high dose of 30 mg/kg WN2-R through i.p. administration. The rotarod test, forced-swim test, and open field test were used to explore the effect of high-dose WN2-R on the motor ability of mice (n = 4). The rotarod test evaluated the drug's effect on motor coordination, the forced-swim test examined its impact on the overall motor system, and the open field test assessed the drug's influence on the motor and nervous systems."}}, "data": [{"smiles": "Cc1ccc(Cn2cc([C@H](CC(=O)NCCN(C)C)c3ccc(F)cc3)c3ccccc32)cc1", "note": "[WN2-R]", "values": [{"measurement": "Effect of the mutation on antagonistic activity", "setting": "Nav1.7 A1596G", "result": "exerted an influence"}, {"measurement": "Effect of the mutation on antagonistic activity", "setting": "Nav1.7 F1609A", "result": "minimal impact"}, {"measurement": "Inhibition rate on the mutant relative to wild type", "setting": "Nav1.7 I1612A", "result": "30.6 % of WT"}, {"measurement": "Inhibition rate on the mutant relative to wild type", "setting": "Nav1.7 M1593A", "result": "57.1 % of WT"}, {"measurement": "Inhibition rate on the mutant relative to wild type", "setting": "Nav1.7 N1551A", "result": "58.9 % of WT"}, {"measurement": "Inhibition rate on the mutant relative to wild type", "setting": "Nav1.7 R1613A", "result": "57.4 % of WT"}, {"measurement": "Inhibition rate on the mutant relative to wild type", "setting": "Nav1.7 T1544A", "result": "60.7 % of WT"}, {"measurement": "Effect of the mutation on antagonistic activity", "setting": "Nav1.7 Y1548A", "result": "minimal impact"}, {"measurement": "Effect of the mutation on antagonistic activity", "setting": "Nav1.7 E1545A/E1600A", "result": "inhibitory effect on WN2-R activity"}, {"measurement": "Effect of the mutation on antagonistic activity", "setting": "Nav1.7 Y1548A/F1609A", "result": "minimal effects"}, {"measurement": "Effect of the mutation on antagonistic activity", "setting": "[1]", "result": "minimal effects"}, {"measurement": "Analgesic rate (normalized number of writhing)", "setting": "[2]; i.g., 5 mg/kg", "result": 30.0, "unit": "%"}, {"measurement": "Analgesic rate (normalized number of writhing)", "setting": "[2]; i.p. (method: 1 mg/kg i.m.)", "result": 34.1, "unit": "%"}, {"measurement": "Survival after high dose", "setting": "mice", "result": "survived normally"}]}]}
